Columns and labels:
[1] = target: T1, recombinant human pancreatic GLK (Homo sapiens, UniProt P35557); test: Enzymatic activity of glucokinase (GLK activation, G-6-P dehydrogenase coupled, OD 340 nm); type: biochemical
T1 construct: 6-His (N); made in house; host or cells: E. coli BL21
T1 sequence (P35557 1-465): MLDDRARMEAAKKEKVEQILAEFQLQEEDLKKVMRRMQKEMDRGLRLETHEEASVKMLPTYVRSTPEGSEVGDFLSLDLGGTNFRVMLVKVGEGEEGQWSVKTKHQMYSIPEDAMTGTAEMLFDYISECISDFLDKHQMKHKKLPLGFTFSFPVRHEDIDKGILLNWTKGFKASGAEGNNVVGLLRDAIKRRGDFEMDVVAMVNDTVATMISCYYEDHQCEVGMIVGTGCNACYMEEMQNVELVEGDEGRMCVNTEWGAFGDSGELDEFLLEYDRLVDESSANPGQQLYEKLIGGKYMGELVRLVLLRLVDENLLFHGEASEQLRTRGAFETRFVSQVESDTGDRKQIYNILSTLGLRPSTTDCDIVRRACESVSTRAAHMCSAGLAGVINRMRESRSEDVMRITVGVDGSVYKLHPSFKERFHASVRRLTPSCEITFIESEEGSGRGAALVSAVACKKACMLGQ

Zucker obese fa/fa rats = test: Oral Glucose Tolerance Test (OGTT); type: in vivo, rat; conditions: 10 mg/kg, given orally 120 minutes before glucose 2 g/kg; percent inhibition of blood glucose AUC vs vehicle
Experimental: The animals were fasted for 2 hours before use for experiments. A test compound or a vehicle was given orally 120 minutes before oral administration of a glucose solution at a dose of 2 g/kg body weight. Blood glucose levels were measured using a Accucheck glucometer from tail bled samples taken at different time points before and after administration of glucose (time course of 60 minutes). […] Percent inhibition was determined using the AUC in the vehicle-control group as zero percent inhibition.

Oral exposure = type: in vivo; conditions: compared with Example II107 in WO 03/015774

EC50 values, Example 11b compared with Example II107 in WO 03/015774 ([1]; comparison in words): broadly similar | EC50 ([1]; read-out: activating activity for glucokinase, EC50): 30 nM | oral exposure (Oral exposure): superior oral exposure
SMILES: COC[C@H](C)Oc1cc(Oc2ccc(S(C)(=O)=O)cc2)cc(C(=O)Nc2nccs2)c1 [Example 11b, 3-[(1S)-2-methoxy-(1-methylethyl)oxy]-5-[4-(methylsulfonyl)phenoxy]-N-1,3-thiazol-2-ylbenzamide]
OGTT activity (Zucker obese fa/fa rats): 29%
